Where two headings read alike, the source gives them in different places.
How the values were obtained:
[1] = biological target: T1, DAT (Rattus norvegicus, UniProt P23977); assay: DAT radioligand binding in rat striatum ([3H]-WIN35,428 competition); conditions: for SERT/DAT: ratio of SERT Ki to DAT Ki
T1 construct: 100 μl of tissue preparation (1.5 mg of brain striatum membranes per well); tissue Bioreclamation IVT (Hicksville, N.Y.); host or cells: male Sprague-Dawley rat brain striatum membranes
T1 sequence (P23977 whole entry): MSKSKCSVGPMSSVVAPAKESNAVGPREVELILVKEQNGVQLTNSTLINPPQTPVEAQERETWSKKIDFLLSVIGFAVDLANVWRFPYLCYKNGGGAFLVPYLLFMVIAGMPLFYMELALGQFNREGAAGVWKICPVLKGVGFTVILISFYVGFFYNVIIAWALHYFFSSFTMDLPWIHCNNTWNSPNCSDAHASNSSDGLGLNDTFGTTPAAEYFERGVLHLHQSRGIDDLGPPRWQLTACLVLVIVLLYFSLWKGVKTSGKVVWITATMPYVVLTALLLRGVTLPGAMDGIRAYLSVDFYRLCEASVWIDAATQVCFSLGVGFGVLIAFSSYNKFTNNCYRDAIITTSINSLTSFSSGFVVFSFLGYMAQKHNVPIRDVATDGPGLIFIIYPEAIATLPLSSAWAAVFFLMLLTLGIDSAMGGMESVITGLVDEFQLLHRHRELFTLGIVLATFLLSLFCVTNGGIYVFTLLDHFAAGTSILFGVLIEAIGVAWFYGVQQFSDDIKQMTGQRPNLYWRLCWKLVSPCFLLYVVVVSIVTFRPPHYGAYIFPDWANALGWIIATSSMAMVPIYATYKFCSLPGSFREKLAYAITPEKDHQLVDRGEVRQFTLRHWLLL
Protocol: (§1) Binding affinities of the analogue compounds were evaluated at the DAT and SERT in rat brain membranes, and sigma-1 in guinea pig brain membranes according to the following protocols.
DAT Radioligand Binding in Rat Striatum
The tissue was centrifuged at 20,000 rpm for 10 min at 4° C. The pellet was suspended in cold buffer and centrifuged again using the same settings. The resulting pellet was resuspended in cold buffer at a concentration of 15 mg/mL OWW (original wet weight). On test day, all test compounds were freshly dissolved in 30% DMSO and 70% H2O to a stock concentration of 1 mM or 100 μM When necessary, to assist the solubilization of compounds, 10 μl of glacial acetic acid was added along with the DMSO (in place of 10 μl final H2O volume). Each test compound was then diluted into 10 half-log serial dilutions using 30% DMSO vehicle. […] Non-specific binding was determined using […] Indatraline and total binding was determined with 30% DMSO vehicle. The reaction was started with the addition of the tissue. […] The filters were washed 3 times with 3 mL (3×1 mL/well) of ice cold binding buffer. […] These analyses were performed using GraphPad Prism version 6.00 for Macintosh (GraphPad Software, San Diego, Calif.).

[2] = biological target: T2, SERT (Rattus norvegicus, UniProt P31652); assay: SERT radioligand binding in rat midbrain ([3H]-Citalopram competition); conditions: rat midbrain/brain stem membranes, [3H]-Citalopram, mean ± SEM; read-out: SERT (rat mid-brain-stem) Ki ± SEM
T2 construct: 100 μl of tissue preparation (2 mg of brain stem membranes per well); tissue Bioreclamation IVT (Hicksville, N.Y.); host or cells: male Sprague-Dawley rat brain stem membranes
T2 sequence (P31652 whole entry): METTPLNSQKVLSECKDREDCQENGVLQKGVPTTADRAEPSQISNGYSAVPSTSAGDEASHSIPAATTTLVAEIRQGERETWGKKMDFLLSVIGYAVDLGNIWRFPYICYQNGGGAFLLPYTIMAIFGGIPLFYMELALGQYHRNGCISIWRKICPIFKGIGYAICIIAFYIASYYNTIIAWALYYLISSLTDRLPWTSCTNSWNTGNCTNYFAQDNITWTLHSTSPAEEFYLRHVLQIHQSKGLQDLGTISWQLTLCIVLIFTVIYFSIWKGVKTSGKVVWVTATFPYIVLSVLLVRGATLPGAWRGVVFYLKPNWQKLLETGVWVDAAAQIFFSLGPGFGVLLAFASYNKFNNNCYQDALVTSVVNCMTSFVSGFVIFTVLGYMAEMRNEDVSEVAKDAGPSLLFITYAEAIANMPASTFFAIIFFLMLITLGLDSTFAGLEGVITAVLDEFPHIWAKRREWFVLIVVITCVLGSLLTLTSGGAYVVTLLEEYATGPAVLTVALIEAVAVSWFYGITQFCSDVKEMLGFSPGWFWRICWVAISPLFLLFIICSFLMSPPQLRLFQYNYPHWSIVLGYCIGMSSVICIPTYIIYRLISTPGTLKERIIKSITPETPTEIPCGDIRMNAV
Protocol: as §1
SERT Radioligand Binding in Rat Midbrain
The tissue was centrifuged at 20,000 rpm for 10 min at 4° C. The pellet was suspended in cold buffer and centrifuged again using the same settings. The resulting pellet was resuspended in cold buffer at a concentration of 20 mg/mL OWW (original wet weight). On test day, all test compounds were freshly dissolved in 30% DMSO and 70% H2O to a stock concentration of 1 mM or 100 μM. When necessary, to assist the solubilization of compounds, 10 μl of glacial acetic acid was added along with the DMSO (in place of 10 μl final H2O volume). Each test compound was then diluted into 10 half-log serial dilutions using 30% DMSO vehicle. […] Non-specific binding was determined using […] Fluoxetine HCl and total binding was determined with 30% DMSO vehicle. The reaction was started with the addition of the tissue. All compound dilutions were tested in triplicate and the reaction incubated for 60 min at room temperature. The reaction was terminated by filtration through Perkin Elmer Uni-Filter-96 GF/B, presoaked for 60 min in 0.3% polyethylenimine, using a Brandel 96-Well Plates Harvester Manifold (Brandel Instruments, Gaithersburg, Md.). The filters were washed 3 times with 3 mL (3×1 mL/well) of ice cold binding buffer. […] These analyses were performed using GraphPad Prism version 6.00 for Macintosh (GraphPad Software, San Diego, Calif.).

[3] = biological target: T3, σ1R (Cavia porcellus, UniProt Q60492); assay: σ1R radioligand binding in guinea pig cortex ([3H]-(+)-Pentazocine competition); conditions: for σ1/DAT: ratio of σ1 to DAT affinity values; for σ1/SERT: ratio of σ1 to SERT affinity values
T3 construct: tissue BioReclamation IVT (Hicksville, N.Y.); host or cells: male Hartley guinea pig brain cortex membranes
T3 sequence (Q60492 whole entry): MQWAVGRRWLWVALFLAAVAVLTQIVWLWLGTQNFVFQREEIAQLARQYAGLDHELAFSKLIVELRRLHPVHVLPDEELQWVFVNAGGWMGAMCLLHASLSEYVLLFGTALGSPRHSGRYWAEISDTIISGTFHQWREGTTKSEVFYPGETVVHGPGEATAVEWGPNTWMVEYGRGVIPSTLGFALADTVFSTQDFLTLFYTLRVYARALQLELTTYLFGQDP
Protocol: as §1
σ1R Radioligand Binding in Guinea Pig Cortex
Male Hartley guinea pig cortices were dissected from freshly harvested brains (shipped cold in PBS buffer from BioReclamation IVT (Hicksville, N.Y.)) and frozen at −80° C. for future use. […] The supernatant was collected in a clean tube and the pellet re-suspended in 10 ml of cold buffer and centrifuged again (˜1,200 rpm) for 10 min at 4° C. […] The final pellet was suspended in ice-cold binding buffer at 50 mg/ml concentration. […] All test compounds were freshly dissolved in 30% DMSO and 70% H2O to a stock concentration of 1 mM or 100 μM. When necessary, to assist the solubilization of compounds, 10 μl of glacial acetic acid was added along with the DMSO (in place of 10 μl final H2O volume). Each test compound was then diluted into 10 half-log serial dilutions using 30% DMSO as the vehicle. […] Nonspecific binding was determined using either 10 μM PRE084 or 10 μM (+)-Pentazocine and total binding was determined with 30% DMSO vehicle (3% DMSO final concentration). […] The filters were washed 3 times with 3 ml (3×1 ml/well) of ice cold binding buffer.

[4] = Phase I metabolic stability in rat liver microsomes; type: in vitro ADME; conditions: for Phase I in Liver Microsomes, Negative Control: rat liver microsomes lacking NADPH; for Phase I in Liver Microsomes, Rat: with NADPH, 10 μM compound, 0.5 mg/mL microsomes; for stability to Phase I metabolism (in words): rat liver microsomes fortified with NADPH
Protocol: Methods: Phase I metabolic stability assays were conducted in rat liver microsomes. For phase I metabolism, the reactions were carried out with 100 mM potassium phosphate buffer, pH 7.4, in the presence of NADPH regenerating system (1.3 mM NADPH, 3.3 mM glucose 6-phosphate, 3.3 mM MgCl2, 0.4 U/mL glucose-6-phosphate dehydrogenase, […] sodium citrate). Reactions in triplicate were initiated by addition of the liver microsomes to the incubation mixture (compound final concentration was 10 μM; 0.5 mg/mL microsomes). Compound disappearance was monitored via LC/MS/MS. […] The total run time for each analyte was 5.0 min.

[5] = rat striatum membranes, [3H]-WIN35,428, mean ± SEM, read-out: DAT (rat striatum) Ki ± SEM

SMILES	Ki [1, 5]	SERT/DAT [1]	Ki [2]	σ1/DAT [3]	σ1/SERT [3]	Phase I in Liver Microsomes, Negative Control ([4]; 0 min)	Phase I in Liver Microsomes, Rat ([4]; 0 min)	Phase I in Liver Microsomes, Rat ([4]; 30 min)	Phase I in Liver Microsomes, Negative Control ([4]; 60 min)	Phase I in Liver Microsomes, Rat ([4]; 60 min)	Ki [1]	stability to Phase I metabolism (in words) [4]	Phase I in Liver Microsomes, Negative Control ([4]; 30 min)	Kd [3]
Cl.Cl.OC(CNC1CCN(CCSC(c2ccc(F)cc2)c2ccc(F)cc2)CC1)Cc1ccccc1 (stereo not shown) [JBG01-061, 1-((1-(2-((Bis(4-fluorophenyl)methyl)thio)ethyl)piperidin-4-yl)amino)-3-phenylpropan-2-ol]	0.0477 ± 0.00262 µM	1.39	0.0663 ± 0.00281 µM	1.84	1.33	100%	100%	83%	109%	69%				
Cl.Cl.Fc1ccc(CN2CCC(NCCSC(c3ccc(F)cc3)c3ccc(F)cc3)CC2)cc1 [JBG01-077, N-(2-((Bis(4-fluorophenyl)methyl)thio)ethyl)-1-(4-fluorobenzyl)piperidin-4-amine]	0.0255 ± 0.00695 µM	10.86	0.277 ± 0.00594 µM	0.52	0.048	100%	100%	88%	111%	70%				
O=C(c1ccc(F)cc1)N1CCC(NCCSC(c2ccc(F)cc2)c2ccc(F)cc2)CC1 [JBG02-028, (4-((2-((Bis(4-fluorophenyl)methyl)thio)ethyl)amino)piperidin-1-yl)(4-fluorophenyl)methanone]		66.99	0.485 ± 0.032 µM	4.43	0.066	100%	100%	40%	101%	24%	0.00724 ± 0.00078 µM	susceptibility		
Cl.Cl.[O-][S+](CCNC1CCN(Cc2ccc(F)cc2)CC1)C(c1ccc(F)cc1)c1ccc(F)cc1 (stereo not shown) [JBG02-054, N-(2-((Bis(4-fluorophenyl)methyl)sulfinyl)ethyl)-1-(4-fluorobenzyl)piperidin-4-amine]	0.0506 ± 0.0112 µM	7.31	0.37 ± 0.0237 µM	0.52	0.072	100%	100%	100%	102%	95%			102%	
Cl.O=C(c1ccc(F)cc1)N1CCC(NCC[S+]([O-])C(c2ccc(F)cc2)c2ccc(F)cc2)CC1 (stereo not shown) [JBG02-056, (4-((2-((Bis(4-fluorophenyl)methyl)sulfinyl)ethyl)amino)piperidin-1-yl)(4-fluorophenyl)methanone]	0.0772 ± 0.00454 µM	59.84	4.62 ± 0.379 µM	17.10	0.29	100%	100%	100%	91%	79%			97%	1.32 ± 0.0365 µM
[O-][S+](CCNC1CCN(CC(O)Cc2ccccc2)CC1)C(c1ccc(F)cc1)c1ccc(F)cc1 (stereo not shown) [JBG02-057, 1-(4-((2-((Bis(4-fluorophenyl)methyl)sulfinyl)ethyl)amino)piperidin-1-yl)-3-phenylpropan-2-ol]	0.0918 ± 0.0213 µM	6.48	0.595 ± 0.0541 µM	3.77	0.58	100%	100%	50%	100%	22%		susceptibility	102%	0.346 ± 0.0271 µM
CC(C)(C)C(=O)N1CCC(NCC[S+]([O-])C(c2ccc(F)cc2)c2ccc(F)cc2)CC1 (stereo not shown) [JBG02-072, 1-(4-((2-((Bis(4-fluorophenyl)methyl)sulfinyl)ethyl)amino)piperidin-1-yl)-2,2-dimethylpropan-1-one]	10.2 ± 3.61 µM	3.14	32 ± 6.76 µM	1.10										
CC(C)(C)CN1CCC(NCC[S+]([O-])C(c2ccc(F)cc2)c2ccc(F)cc2)CC1 (stereo not shown) [JBG02-074, N-(2-((Bis(4-fluorophenyl)methyl)sulfinyl)ethyl)-1-neopentylpiperidin-4-amine]	0.431 ± 0.0282 µM	16.22	6.99 ± 0.229 µM	1.26										
Fc1ccc(C(SCCNC2CCN(CC3CC3)CC2)c2ccc(F)cc2)cc1 [JBG02-080, N-(2-((bis(4-fluorophenyl)methyl)thio)ethyl)-1-(cyclopropylmethyl)piperidin-4-amine]	0.407 ± 0.065 µM	3.93	1.6 ± 0.164 µM	0.66										
O=C(C1CC1)N1CCC(NCCSC(c2ccc(F)cc2)c2ccc(F)cc2)CC1 [JBG02-083, (4-((2-((bis(4-fluorophenyl)methyl)thio)ethyl)amino)piperidin-1-yl)(cyclopropyl)methanone]	0.178 ± 0.035 µM	5.67	1.01 ± 0.094 µM	0.26										
CC(O)CN1[C@H](C)CN(CCSC(c2ccc(F)cc2)c2ccc(F)cc2)C[C@@H]1C (stereo partly drawn) [RDS03-094, 1-((2S,6R)-4-(2-((Bis(4-fluorophenyl)methyl)thio)ethyl)-2,6-dimethylpiperazin-1-yl)propan-2-ol]		629.79	14.8 ± 2.26 µM	0.24	0.00038	100%	100%	99%	109%	68%	0.0235 ± 0.00212 µM	moderate stability	106%	
CC(O)CN1CCC2(CCN(CC[S+]([O-])C(c3ccc(F)cc3)c3ccc(F)cc3)CC2)C1 (stereo not shown) [RDS04-014]	0.449 ± 0.12 µM	1.37	0.617 ± 0.0548 µM	0.14	0.11									

Source: patent US11365195B2, “Atypical inhibitors of monoamine transporters; method of making; and use thereof” (THE UNITED STATES OF AMERICA, AS REPRESENTED BY THE …, priority 2017, dated 2022)
